Values quoted from earlier work, collected in patent publication US6340480B1, “Natural composition for the treatment of circulatory conditions” (priority 1998, dated 2002).

Tested on: Activated Macrophages
Settings: for killing certain tumor cells; literature study

Compound: CC(C)=CCC[C@](C)(O[C@@H]1O[C@H](CO)[C@@H](O)[C@H](O)[C@H]1O)[C@H]1CC[C@]2(C)[C@@H]1[C@H](O)C[C@@H]1[C@@]3(C)CC[C@H](O)C(C)(C)[C@@H]3[C@@H](O[C@@H]3O[C@H](CO)[C@@H](O)[C@H](O)[C@H]3O)C[C@]12C [RG1]
- production of NO: enhances the production of NO
